Data taken from patent publication US20140309192A1, “MODULATORS OF THE G PROTEIN-COUPLED MAS RECEPTOR AND THE TREATMENT OF DISORDERS RELATED THERETO” (ARENA PHARMACEUTICALS, INC., priority 2011, published 2014).
Read-outs that look alike come from different tables or passages of the source.

Tests used:
[1] = biological target: T1, rat Mas receptor (Rattus norvegicus, UniProt P12526); assay: HTRF IP1 assay, HEK293 cells expressing rat Mas receptor; format: cell-based
T1 construct: expressed in transfected cells; host or cells: HEK293 (ATCC CRL-1573)
T1 sequence (P12526 1-324): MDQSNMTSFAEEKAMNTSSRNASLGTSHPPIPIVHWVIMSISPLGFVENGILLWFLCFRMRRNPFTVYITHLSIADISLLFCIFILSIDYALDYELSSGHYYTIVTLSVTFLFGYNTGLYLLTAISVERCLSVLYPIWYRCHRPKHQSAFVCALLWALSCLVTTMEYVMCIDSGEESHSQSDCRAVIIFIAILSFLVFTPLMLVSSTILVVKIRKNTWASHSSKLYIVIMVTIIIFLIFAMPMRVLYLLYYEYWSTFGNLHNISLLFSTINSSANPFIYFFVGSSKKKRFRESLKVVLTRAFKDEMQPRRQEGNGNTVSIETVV

[2] = biological target: T2, human Mas receptor (Homo sapiens, UniProt P04201); assay: HTRF IP1 assay, HEK293 cells expressing human Mas receptor; format: cell-based
T2 construct: expressed in transfected cells; host or cells: HEK293 (ATCC CRL-1573)
T2 sequence (P04201 1-325): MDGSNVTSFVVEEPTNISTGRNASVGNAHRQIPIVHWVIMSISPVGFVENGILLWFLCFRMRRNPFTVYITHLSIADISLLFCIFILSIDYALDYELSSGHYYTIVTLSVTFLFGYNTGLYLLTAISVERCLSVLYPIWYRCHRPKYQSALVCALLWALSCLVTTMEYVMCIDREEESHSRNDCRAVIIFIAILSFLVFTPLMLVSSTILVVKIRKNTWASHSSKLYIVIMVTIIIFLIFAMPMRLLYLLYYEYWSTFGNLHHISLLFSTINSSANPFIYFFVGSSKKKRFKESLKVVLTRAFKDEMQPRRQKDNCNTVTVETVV

[3] = system: Male Sprague-Dawley rats; assay: Myocardial ischemia/reperfusion injury in rats, infarct size (Example 4); format: in vivo, rat
Experimental: Adult rats were anesthetized with sodium pentobarbital (50 mg/kg i.p.) and placed in the supine position on a surgery frame with a heating pad (37° C.) beneath. Rats were tracheostomized and ventilated with a SAR-830 small-animal ventilator (Model 683, Harvard Apparatus) to provide room air at a tidal volume of 2.5 mL/stroke and at a rate of 70 stroke/min. Polyethylene catheters were placed in the right internal carotid artery and the external jugular vein for measurement of mean arterial blood pressure and infusion of drug or vehicle, respectively.
Myocardial I/R injury was produced as follows. A left thoracotomy was performed approximately 20 mm from the sternum to expose the heart at the fifth intercostal space. […]
Animals were randomly divided into the following 4 groups: (1-3) low, medium, and high doses of Compound 170 administered by continuous i.v. infusion starting 30 min before coronary artery ligation (n=6 per dose), and (4) 20% HPBCD (vehicle, hydroxypropyl-β-cyclodextrin) administered by continuous i.v. infusion beginning 30 min before coronary artery ligation (n=6). […] Mean arterial blood pressure was measured after stabilization and just prior to drug infusion (baseline) and again following 25 min of drug or vehicle infusion, before coronary artery ligation. […]

SMILES	IC50 ([1]; IP assay, HEK293 cells stably expressing rat Mas, 4 h, means ± SEM, read-out: Rat IC50)	ligand activity in IP assay, rat Mas ([1]; Table C, line under Rat IC50)	IC50 ([2]; IP assay, HEK293 cells stably expressing human Mas, 4 h, means ± SEM, read-out: Human IC50)	ligand activity in IP assay, human Mas ([2]; Table C, line under Human IC50)	IC50 ([1]; HTRF IP1 assay, rat Mas receptor (Table B.1), read-out: IC50)	IC50 ([2]; HTRF IP1 assay, human Mas receptor (Table B.2), read-out: IC50)	reduction of myocardial infarction size ([3]; FIG. 5, rats subjected to coronary artery ligation and reperfusion)	myocardial infarct size after reperfusion compared to vehicle treatment ([3]; medium (1.878 mg/kg loading + 0.492 mg/kg/h) and high dose (6.26 mg/kg loading + 1.64 mg/kg/h) i.v., 30 min ischemia, 2 h reperfusion)
COc1cc([N+](=O)[O-])ccc1S(=O)(=O)N1CC(CN2CCN(c3ccccn3)CC2)C(c2cccc(F)c2)C1 (centres unmarked) [AR234960]	172 ± 9 nM	(agonist)	351 ± 55 nM	(agonist)	–	–	–	–
NC(=O)[C@H](CO)NCc1ccc(C(=O)Nc2ccc(Cl)cc2N2CCN(CCC(F)(F)F)CC2)c(F)c1F [Compound 170, (S)-4-((1-Amino-3-hydroxy-1-oxopropan-2-ylamino)methyl)-N-(4-chloro-2-(4-(3,3,3-trifluoropropyl)piperazin-1-yl)phenyl)-2,3-difluorobenzamide]	–	–	–	–	21.4 nM	15.6 nM	dose dependent effect	significant decrease
